Earlier results on one compound are cited in publication PMC7838024 (Acta Pharmaceutica Sinica. B, 2020).

The conditions of the data set: rats, doses from 0.5 to 1.5 mg/kg.

Consider `CO[C@H]1C(=O)[C@]2(C)[C@@H](OC)C[C@H]3OC[C@@]3(OC(C)=O)[C@H]2[C@H](OC(=O)c2ccccc2)[C@]2(O)C[C@H](OC(=O)[C@H](O)[C@@H](NC(=O)OC(C)(C)C)c3ccccc3)C(C)=C1C2(C)C` [CTX, cabazitaxel], for which the “central nervous system toxicity” value is recorded as “dose-dependent central nervous system toxicity”.
